Earlier results, collected in PubChem BioAssay AID1259409 (Chemical Carcinogenesis Research Information System (CCRIS), 2018).

System: rodent chemically induced tumor inhibition, incidence and multiplicity
Experiment: CCRIS tumor inhibitor studies
Settings: Route [Inhibitor]: ORAL

O=[Se](O)O
tumour outcome (control, treated, inhibition, significance) (Carcinogen: DIETHYLNITROSAMINE, 55-18-5, Dose [Inhibitor]: 0, 10 MG/L IN DRINKING WATER FOR DURATION OF STUDY BEGINNING 4 D POST CARCINOGEN TREATMENT (STUDY DURATION: 6 MO), Species: RAT, Strain/Sex: BD6/FEMALE, Target Tissue: Type of Lesion: ESOPHAGUS: TUMOR, Dose [Carcinogen]: 80 MG/KG BW 1/WK FOR 9 WK, Promoter: NONE USED): 29%, 18%, 38%, not significant
tumour outcome (control, treated, inhibition, significance) (Carcinogen: DIETHYLNITROSAMINE, 55-18-5, Dose [Inhibitor]: 0, 10 MG/L IN DRINKING WATER FOR DURATION OF STUDY BEGINNING 7 D PRIOR TO CARCINOGEN TREATMENT (STUDY DURATION: 6 MO), Species: RAT, Strain/Sex: BD6/FEMALE, Target Tissue: Type of Lesion: ESOPHAGUS: TUMOR, Dose [Carcinogen]: 80 MG/KG BW 1/WK FOR 7 WK, Promoter: NONE USED): 25%, 14%, 44%, not significant
tumour outcome (control, treated, inhibition, significance) (Carcinogen: DIETHYLNITROSAMINE, 55-18-5, Dose [Inhibitor]: 0, 10 MG/L IN DRINKING WATER FOR DURATION OF STUDY BEGINNING 7 D PRIOR TO CARCINOGEN TREATMENT (STUDY DURATION: 6 MO), Species: RAT, Strain/Sex: BD6/FEMALE, Target Tissue: Type of Lesion: LIVER: TUMOR, Dose [Carcinogen]: 80 MG/KG BW 1/WK FOR 7 WK, Promoter: NONE USED): 64%, 31%, 52%, p<0.05
tumour outcome (control, treated, inhibition, significance) (Carcinogen: DIETHYLNITROSAMINE, 55-18-5, Dose [Inhibitor]: 0, 10 MG/L IN DRINKING WATER FOR DURATION OF STUDY BEGINNING 7 D PRIOR TO FIRST CARCINOGEN DOSE (STUDY DURATION: 6 MO), Species: RAT, Strain/Sex: BD6/FEMALE, Target Tissue: Type of Lesion: ESOPHAGUS: TUMOR, Dose [Carcinogen]: 80 MG/KG BW 1/WK FOR 8 WK, Promoter: NONE USED): 31%, 39%, -26%, not significant
tumour outcome (control, treated, inhibition, significance) (Carcinogen: DIETHYLNITROSAMINE, 55-18-5, Dose [Inhibitor]: 0, 10 MG/L IN DRINKING WATER FOR DURATION OF STUDY BEGINNING 7 D PRIOR TO FIRST CARCINOGEN DOSE (STUDY DURATION: 6 MO), Species: RAT, Strain/Sex: BD6/FEMALE, Target Tissue: Type of Lesion: ESOPHAGUS: TUMOR, Dose [Carcinogen]: 100 MG/L IN DRINKING WATER FOR 3.5 MO, Promoter: NONE USED): 37%, 25%, 32%, not significant
tumour outcome (control, treated, inhibition, significance) (Carcinogen: DIETHYLNITROSAMINE, 55-18-5, Dose [Inhibitor]: 0, 10 MG/L IN DRINKING WATER FOR DURATION OF STUDY BEGINNING 7 D PRIOR TO FIRST CARCINOGEN DOSE (STUDY DURATION: 6 MO), Species: RAT, Strain/Sex: BD6/FEMALE, Target Tissue: Type of Lesion: LIVER: TUMOR, Dose [Carcinogen]: 80 MG/KG BW 1/WK FOR 8 WK, Promoter: NONE USED): 94%, 69%, 27%, not significant
tumour outcome (control, treated, inhibition, significance) (Carcinogen: DIETHYLNITROSAMINE, 55-18-5, Dose [Inhibitor]: 0, 10 MG/L IN DRINKING WATER FOR DURATION OF STUDY BEGINNING 7 D PRIOR TO FIRST CARCINOGEN DOSE (STUDY DURATION: 6 MO), Species: RAT, Strain/Sex: BD6/FEMALE, Target Tissue: Type of Lesion: LIVER: TUMOR, Dose [Carcinogen]: 100 MG/L IN DRINKING WATER FOR 3.5 MO, Promoter: NONE USED): 95%, 94%, 1%, not significant
tumour outcome (control, treated, inhibition, significance) (Carcinogen: DIETHYNITROSAMINE, 55-18-5, Dose [Inhibitor]: 0, 1 MG/L IN DRINKING WATER FOR DURATION OF STUDY BEGINNING 7 D PRIOR TO FIRST CARCINOGEN DOSE (STUDY DURATION: 6 MO), Species: RAT, Strain/Sex: BD6/FEMALE, Target Tissue: Type of Lesion: LIVER: TUMOR, Dose [Carcinogen]: 80 MG/KG BW 1/WK FOR 8 WK, Promoter: NONE USED): 85%, 75%, 12%, not significant
tumour outcome (control, treated, inhibition, significance) (Carcinogen: ETHYLNITROSOUREA, 759-73-9, Dose [Inhibitor]: 0, 4 MG/L TAP DRINKING WATER FOR LIFE (STUDY DURATION: 310 D), Species: RAT, Strain/Sex: ALBINO/MALE,FEMALE, Target Tissue: Type of Lesion: KIDNEY: MESENCHYMAL TUMOR OR ADENOCARCINOMA, Dose [Carcinogen]: 75 MG/KG IN SALINE BY INTRAVENOUS INJECTION ONCE 21 D AFTER CONCEPTION): 33/89 (37%), 20/55 (36%), 3%, not calculated
tumour outcome (control, treated, inhibition, significance) (Carcinogen: ETHYLNITROSOUREA, 759-73-9, Dose [Inhibitor]: 0, 4 MG/L TAP DRINKING WATER FOR LIFE (STUDY DURATION: 310 D), Species: RAT, Strain/Sex: ALBINO/MALE,FEMALE, Target Tissue: Type of Lesion: SPINAL CORD: TUMOR, Dose [Carcinogen]: 75 MG/KG IN SALINE BY INTRAVENOUS INJECTION ONCE 21 D AFTER CONCEPTION): 55/89 (62%), 32/55 (58%), 6%, not calculated
tumour outcome (control, treated, inhibition, significance) (Carcinogen: ETHYLNITROSOUREA, 759-73-9, Dose [Inhibitor]: 0, 4 MG/L TAP DRINKING WATER FOR LIFE (STUDY DURATION: 310 D), Species: RAT, Strain/Sex: ALBINO/MALE/FEMALE, Target Tissue: Type of Lesion: BRAIN: GLIOMA OR ASTROCYTOMA, Dose [Carcinogen]: 75 MG/KG IN SALINE BY INTRAVENOUS INJECTION ONCE 21 D AFTER CONCEPTION): 54/89 (61%), 33/55 (60%), 2%, not calculated
tumour outcome (control, treated, inhibition, significance) (Carcinogen: ETHYLNITROSOUREA, 759-73-9, Dose [Inhibitor]: 0, 4 MG/L TAP DRINKING WATER FOR LIFE (STUDY DURATION: 319 D), Species: RAT, Strain/Sex: ALBINO/MALE,FEMALE, Target Tissue: Type of Lesion: NERVOUS SYSTEM: SCHWANNOMA, Dose [Carcinogen]: 75 MG/KG IN SALINE BY INTRAVENOUS INJECTION ONCE 21 D AFTER CONCEPTION): 37/89 (42%), 21/55 (38%), 10%, not calculated
tumour outcome (control, treated, inhibition, significance) (Carcinogen: METHYLAZOXYMETHANOL, 590-96-5, Dose [Inhibitor]: 4 PPM IN DRINKING WATER DAILY FOR 20 WK STARTING SIMULTANEOUSLY WITH CARCINOGEN TREATMENT AND CONTINUING THROUGH END OF, Species: RAT, Strain/Sex: SPRAGUE-DAWLEY/MALE, Target Tissue: Type of Lesion: COLON: ADENOCARCINOMA, Dose [Carcinogen]: 20 MG/KG BW 1/WK FOR 20 WK, Promoter: NONE USED): 14/14 (100%), 14/15 (93%), 7%, not significant
tumour outcome (control, treated, inhibition, significance) (Carcinogen: METHYLCHOLANTHRENE, 56-49-5, Dose [Inhibitor]: 0, 1 PPM IN DRINKING WATER FOR 13 WK BEGINNING 1 WK PRIOR TO CARCINOGEN TREATMENT (STUDY DURATION: 13 WK), Species: MOUSE, Strain/Sex: SWISS/FEMALE, Target Tissue: Type of Lesion: UTERUS: SQUAMOUS CELL TUMOR, Dose [Carcinogen]: 600 UG IN BEESWAX IMPREGNATED COTTON THREAD INSERTED INTO UTERINE CERVIX CANAL, Promoter: NONE USED): 18/25 (72%), 13/35 (37%), 49%, p<0.05
tumour outcome (control, treated, inhibition, significance) (Carcinogen: N'-NITROSOBIS(2-OXOPROPYL)AMINE, 60599-38-4, Dose [Inhibitor]: 0.1, 4 PPM (43.5 UG/D) IN DRINKING WATER BEGINNING 8 WK PRIOR TO FIRST CARCINOGEN DOSE AND CONTINUING FOR DURATION OF ST, Species: HAMSTER, Strain/Sex: SYRIAN/FEMALE, Target Tissue: Type of Lesion: PANCREAS: TUMOR, Dose [Carcinogen]: 10 MG/KG IN 0.9% SALINE 1/WK FOR 10 WK, Promoter: NONE USED): 88%, 88%, 0%
